Like-named read-outs stand apart in the source and are kept apart here.
What was measured:
[1] = tested on: HCV genotype 1a (H77 strain) replicon in HUH-7 cells; assay: HCV replicon luciferase reporter assay, genotype 1a; type: cell-based; conditions: Hepatitis C virus, Huh-7, 72 h, 3 days incubation
Outline: (§1)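 Replicon inhibition for both genotypes was measured as Renilla luciferase signal (EnduRen, 7.5 μM final, 2 h) after 3-day, 37° C exposure of replicon-bearing HUH-7 cells in 4% FCS DMEM, 0.5% DMSO. The 1b construct carries S1179I; the 1a H77 construct carries P1496L and S2204I. Twenty-point, 3-fold dilutions were fitted four-parametrically for EC50, and CC50 was taken from multiplexed Cell Titer-Blue.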

[2] = tested on: HCV genotype 1b (Con1) replicon in HUH-7 cells; assay: HCV replicon luciferase reporter assay, genotype 1b; type: cell-based; conditions: Hepatitis C virus, Huh-7, 72 h, 3 days incubation
Outline: as §1

[3] = HCV genotype 1a replicon luciferase, read-out: LE_1a (EC50, range)
[4] = HCV genotype 1b replicon luciferase, read-out: LE_1b (EC50, range)
[5] = HCV genotype 1a replicon luciferase assay, range class, read-out: LE_1a (EC50, range)
[6] = HCV genotype 1b replicon luciferase assay, range class, read-out: LE_1b (EC50, range)

## CCC(CC)(OC(=O)N[C@@H]1C(=O)N2C[C@H](Oc3nccc4c5c(ccc34)OCCO5)C[C@H]2C(=O)N[C@]2(C(=O)NS(=O)(=O)C3CC3)C[C@H]2/C=C\CC[C@H](C)C[C@H]1C)C(F)(F)F [Compound 5261, 3-(trifluoromethyl)pentan-3-yl ((2R,6S,7R,9S,13aS,14aR,16aS,Z)-14a-((cyclopropylsulfonyl)carbamoyl)-2-((2,3-dihydro-[1,4]dioxino[2,3-f]isoquinolin-7-yl)oxy)-7,9-dimethyl-5,16-dioxo-1,2,3,5,6,7,8,9,10,11,13a,14,14a,15,16,16a-hexadecahydrocyclopropa[e]pyrrolo[1,2-a][1,4]diazacyclopentadecin-6-yl)carbamate]
[1]; HCV genotype 1a replicon luciferase, read-out: LE_1a (EC50)
  EC50: 14.3 nM
[1]; [3]
  EC50: 4.82 to 103 nM
[2]; HCV genotype 1b replicon luciferase, read-out: LE_1b (EC50)
  EC50: 2.18 nM
[2]; [4]
  EC50: < 5.46 nM

## COc1ccc2c(O[C@@H]3C[C@H]4C(=O)N[C@]5(C(=O)NS(=O)(=O)C6CC6)C[C@H]5/C=C\CC[C@H](C)C[C@@H](C)[C@H](NC(=O)O[C@H](C)C(F)(F)F)C(=O)N4C3)nc(-c3ccc(OC(C)C)cn3)cc2c1 [Compound 5206, (R)-1,1,1-trifluoropropan-2-yl ((2R,6S,7R,9S,13aS,14aR,16aS,Z)-14a-((cyclopropylsulfonyl)carbamoyl)-2-((3-(5-isopropoxypyridin-2-yl)-6-methoxyisoquinolin-1-yl)oxy)-7,9-dimethyl-5,16-dioxo-1,2,3,5,6,7,8,9,10,11,13a,14,14a,15,16,16a-hexadecahydrocyclopropa[e]pyrrolo[1,2-a][1,4]diazacyclopentadecin-6-yl)carbamate]
[1]; [3]
  EC50: < 5.46 nM
[2]; [4]
  EC50: < 5.46 nM

## COc1cnc(O[C@@H]2C[C@H]3C(=O)N[C@]4(C(=O)NS(=O)(=O)C5(C)CC5)C[C@H]4/C=C\CC[C@H](C)C[C@@H](C)[C@H](NC(=O)OC(C)(C)C)C(=O)N3C2)c2ccc(N(C)C)cc12 [Compound 3135, tert-butyl ((2R,6S,7R,9S,13aS,14aR,16aS,Z)-2-((6-(dimethylamino)-4-methoxyisoquinolin-1-yl)oxy)-7,9-dimethyl-14a-(((1-methylcyclopropyl)sulfonyl)carbamoyl)-5,16-dioxo-1,2,3,5,6,7,8,9,10,11,13a,14,14a,15,16,16a-hexadecahydrocyclopropa[e]pyrrolo[1,2-a][1,4]diazacyclopentadecin-6-yl)carbamate]
[1]; [5]
  EC50: < 5.46 nM
[2]; [6]
  EC50: < 5.46 nM

## COc1cnc(O[C@@H]2C[C@H]3C(=O)N[C@]4(C(=O)NS(=O)(=O)C5(CF)CC5)C[C@H]4/C=C\CC[C@@H](C)C[C@@H](C)[C@H](NC(=O)OC(C)(C)C(C)(F)F)C(=O)N3C2)c2ccccc12 [Compound 1043, 3,3-difluoro-2-methylbutan-2-yl((2R,6S,7R,9R,13aS,14aR,16aS,Z)-14a-(((1-(fluoromethyl)cyclopropyl)sulfonyl)carbamoyl)-2-((4-methoxyisoquinolin-1-yl)oxy)-7,9-dimethyl-5,16-dioxo-1,2,3,5,6,7,8,9,10,11,13a,14,14a,15,16,16a-hexadecahydrocyclopropa[e]pyrrolo[1,2-a][1,4]diazacyclopentadecin-6-yl)carbamate]
[1]; [5]
  EC50: < 5.46 nM
[2]; [6]
  EC50: < 5.46 nM

## CCN(C)c1cc2cc(OC)ccc2c(O[C@@H]2C[C@H]3C(=O)N[C@]4(C(=O)NS(=O)(=O)C5(CF)CC5)C[C@H]4/C=C\CC[C@H](C)C[C@@H](C)[C@H](NC(=O)OC(C)(C)C(C)(F)F)C(=O)N3C2)n1 [Compound 1138, 3,3-difluoro-2-methylbutan-2-yl((2R,6S,7R,9S,13aS,14aR,16aS,Z)-2-((3-(ethyl(methyl)amino)-6-methoxyisoquinolin-1-yl)oxy)-14a-(((1-(fluoromethyl)cyclopropyl)sulfonyl)carbamoyl)-7,9-dimethyl-5,16-dioxo-1,2,3,5,6,7,8,9,10,11,13a,14,14a,15,16,16a-hexadecahydrocyclopropa[e]pyrrolo[1,2-a][1,4]diazacyclopentadecin-6-yl)carbamate]
[1]; [5]
  EC50: > 87.4 nM
[2]; [6]
  EC50: > 87.4 nM

## [2H]C([2H])([2H])C(OC(=O)N[C@@H]1C(=O)N2C[C@H](Oc3nc(N4CCOCC4)cc4cc(OC)ccc34)C[C@H]2C(=O)N[C@]2(C(=O)NS(=O)(=O)C3CC3)C[C@H]2/C=C\CC[C@@H](C)C[C@H]1C)(C([2H])([2H])[2H])C(F)(F)F [Compound 3101, 1,1,1,3,3,3-hexadeutero-2-(trifluoromethyl)propan-2-yl((2R,6S,7R,9R,13aS,14aR,16aS,Z)-14a-((cyclopropylsulfonyl)carbamoyl)-2-((6-methoxy-3-morpholinoisoquinolin-1-yl)oxy)-7,9-dimethyl-5,16-dioxo-1,2,3,5,6,7,8,9,10,11,13a,14,14a,15,16,16a-hexadecahydrocyclopropa[e]pyrrolo[1,2-a][1,4]diazacyclopentadecin-6-yl)carbamate]
[1]; [5]
  EC50: < 5.46 nM
[2]; [6]
  EC50: < 5.46 nM

## COCCOc1cnc(O[C@@H]2C[C@H]3C(=O)N[C@]4(C(=O)NS(=O)(=O)C5(C)CC5)C[C@H]4/C=C\CC[C@@H](C)C[C@@H](C)[C@H](NC(=O)OC(C)(C)C)C(=O)N3C2)c2ccc(OC)cc12 [Compound 1153, tert-butyl ((2R,6S,7R,9R,13aS,14aR,16aS,Z)-2-((6-methoxy-4-(2-methoxyethoxyl)isoquinolin-1-yl)oxy)-7,9-dimethyl-14a-(((1-methylcyclopropyl)sulfonyl)carbamoyl)-5,16-dioxo-1,2,3,5,6,7,8,9,10,11,13a,14,14a,15,16,16a-hexadecahydrocyclopropa[e]pyrrolo[1,2-a][1,4]diazacyclopentadecin-6-yl)carbamate]
[1]; [5]
  EC50: < 5.46 nM
[2]; [6]
  EC50: < 5.46 nM

## CCOc1cc2cc(OC)ccc2c(O[C@@H]2C[C@H]3C(=O)N[C@]4(C(=O)NS(=O)(=O)C5(C)CC5)C[C@H]4/C=C\CC[C@@H](C)C[C@@H](C)[C@H](NC(=O)OC(C)(C)C(C)(F)F)C(=O)N3C2)n1 [Compound 3200, 3,3-difluoro-2-methylbutan-2-yl((2R,6S,7R,9R,13aS,14aR,16aS,Z)-2-((3-ethoxy-6-methoxyisoquinolin-1-yl)oxy)-7,9-dimethyl-14a-(((1-methylcyclopropyl)sulfonyl)carbamoyl)-5,16-dioxo-1,2,3,5,6,7,8,9,10,11,13a,14,14a,15,16,16a-hexadecahydrocyclopropa[e]pyrrolo[1,2-a][1,4]diazacyclopentadecin-6-yl)carbamate]
[1]; [3]
  EC50: 0.51 to 1 nM
[2]; [4]
  EC50: 0.51 to 1 nM

## CCOc1cc2ccnc(O[C@@H]3C[C@H]4C(=O)N[C@]5(C(=O)NS(=O)(=O)C6(C)CC6)C[C@H]5/C=C\CC[C@@H](C)C[C@@H](C)[C@H](NC(=O)OC(C)(C)C(C)(F)F)C(=O)N4C3)c2cc1F [Compound 5397, 3,3-difluoro-2-methylbutan-2-yl((2R,6S,7R,9R,13aS,14aR,16aS,Z)-2-((6-ethoxy-7-fluoroisoquinolin-1-yl)oxy)-7,9-dimethyl-14a-(((1-methylcyclopropyl)sulfonyl)carbamoyl)-5,16-dioxo-1,2,3,5,6,7,8,9,10,11,13a,14,14a,15,16,16a-hexadecahydrocyclopropa[e]pyrrolo[1,2-a][1,4]diazacyclopentadecin-6-yl)carbamate]
[1]; [3]
  EC50: 1.01 to 5 nM
[2]; [4]
  EC50: 0.51 to 1 nM

## CC[C@@H]1C[C@H](C)CC/C=C\[C@@H]2C[C@@]2(C(=O)NS(=O)(=O)C2CC2)NC(=O)[C@@H]2C[C@@H](Oc3nc(OC)cc4ccccc34)CN2C(=O)[C@H]1NC(=O)OC(C)(C)C [Compound 6001, tert-butyl ((2R,6S,7R,9R,13aS,14aR,16aS,Z)-14a-((cyclopropylsulfonyl)carbamoyl)-7-ethyl-2-((3-methoxyisoquinolin-1-yl)oxy)-9-methyl-5,16-dioxo-1,2,3,5,6,7,8,9,10,11,13a,14,14a,15,16,16a-hexadecahydrocyclopropa[e]pyrrolo[1,2-a][1,4]diazacyclopentadecin-6-yl)carbamate]
[1]; [3]
  EC50: < 5.46 nM
[2]; [4]
  EC50: < 5.46 nM

## COc1cc(F)cc2c(O[C@@H]3C[C@H]4C(=O)N[C@]5(C(=O)NS(=O)(=O)C6CC6)C[C@H]5/C=C\CC[C@@H](C)C[C@@H](C)[C@H](NC(=O)OC(C)(C)C(F)(F)F)C(=O)N4C3)nccc12 [Compound 3166, 1,1,1-trifluoro-2-methylpropan-2-yl((2R,6S,7R,9R,13aS,14aR,16aS,Z)-14a-((cyclopropylsulfonyl)carbamoyl)-2-((7-fluoro-5-methoxyisoquinolin-1-yl)oxy)-7,9-dimethyl-5,16-dioxo-1,2,3,5,6,7,8,9,10,11,13a,14,14a,15,16,16a-hexadecahydrocyclopropa[e]pyrrolo[1,2-a][1,4]diazacyclopentadecin-6-yl)carbamate]
[1]; [5]
  EC50: < 5.46 nM
[2]; [6]
  EC50: < 5.46 nM

## COc1ccc2c(O[C@@H]3C[C@H]4C(=O)N[C@]5(C(=O)NS(=O)(=O)C6(C)CC6)C[C@H]5/C=C\CC[C@H](C)C[C@@H](C)[C@H](NC(=O)O[C@H](C)C(F)(F)F)C(=O)N4C3)nc(N3CCOCC3)cc2c1 [Compound 3092, (R)-1,1,1-trifluoropropan-2-yl ((2R,6S,7R,9S,13aS,14aR,16aS,Z)-2-((6-methoxy-3-morpholinoisoquinolin-1-yl)oxy)-7,9-dimethyl-14a-(((1-methylcyclopropyl)sulfonyl)carbamoyl)-5,16-dioxo-1,2,3,5,6,7,8,9,10,11,13a,14,14a,15,16,16a-hexadecahydrocyclopropa[e]pyrrolo[1,2-a][1,4]diazacyclopentadecin-6-yl)carbamate]
[1]; [5]
  EC50: < 5.46 nM
[2]; [6]
  EC50: < 5.46 nM
